In patent US12077503B2, “Substituted cyclic amides and their use as herbicides” (FMC CORPORATION, priority 2015, dated 2024) one finds pest or weed control and plant injury data, which are given here for four compounds.

Holding throughout (type): in vivo
In experiment [1] the test system is giant foxtail (Setaria faberii). The experiment can be described thus: Test A preemergence. The conditions noted are these: Setaria faberi, pre-emergence, 240 h, preemergence, 0 to 100 scale where 0 is no effect and 100 is complete control, read-out: Foxtail, Giant plant response rating; for pest or weed control at 125 g/ha: 125 g ai/ha, visual injury rating, approximately 10 d; for pest or weed control at 500 g/ha: 500 g ai/ha. The essentials: (§1)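 Seeds sprayed preemergence with a directed soil spray, or plants at 2 to 10 cm height and one- to two-leaf stage sprayed postemergence, with test chemicals in a non-phytotoxic solvent mixture containing surfactant, in loam soil–sand blend. Injury rated visually against untreated controls after about 10 d in greenhouse, 0 (no effect) to 100 (complete control).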

Experiment [2] concerns Galium (catchweed bedstraw, Galium aparine). As to the kind of experiment: Test A postemergence. As to conditions: Galium, post-emergence, 240 h, postemergence; for pest or weed control at 125 g/ha: 125 g ai/ha, visual injury vs untreated controls after approx. 10 d, 0 = no effect, 100 = complete control, read-out: Galium plant response rating (0 to 100 scale); for pest or weed control at 500 g/ha: 500 g ai/ha, 0 to 100 scale, 0 is no effect, 100 is complete control, read-out: Galium plant response rating. In short, it runs like this: as §1

In a further experiment the test system is Kochia (Kochia scoparia). As to the kind of experiment: Test A postemergence. The conditions noted are these: Bassia scoparia, post-emergence, 240 h, postemergence; for pest or weed control at 125 g/ha: 125 g ai/ha, visual injury vs untreated controls after approx. 10 d, 0 = no effect, 100 = complete control, read-out: Kochia plant response rating (0 to 100 scale); for pest or weed control at 500 g/ha: 500 g ai/ha, 0 to 100 scale, 0 is no effect, 100 is complete control, read-out: Kochia plant response rating. The essentials:
as §1

Experiment [3] deals with blackgrass (Alopecurus myosuroides). As to the kind of experiment: Test A postemergence. The conditions noted are these: Alopecurus myosuroides, post-emergence, 240 h, postemergence; for pest or weed control at 125 g/ha: 125 g ai/ha, visual injury vs untreated controls after approx. 10 d, 0 = no effect, 100 = complete control, read-out: Blackgrass plant response rating (0 to 100 scale); for pest or weed control at 500 g/ha: 500 g ai/ha, 0 to 100 scale, 0 is no effect, 100 is complete control, read-out: Blackgrass plant response rating. The essentials: as §1

The next experiment concerns corn (Zea mays). As to the kind of experiment: Test A postemergence. The conditions noted are these: Zea mays, post-emergence, 240 h, postemergence; for plant injury at 125 g/ha: 125 g ai/ha, visual injury vs untreated controls after approx. 10 d, 0 = no effect, 100 = complete control, read-out: Corn plant response rating (0 to 100 scale); for plant injury at 500 g/ha: 500 g ai/ha, 0 to 100 scale, 0 is no effect, 100 is complete control, read-out: Corn plant response rating. The essentials:
as §1

Experiment [4] relates to giant foxtail (Setaria faberii). As to the kind of experiment: Test A postemergence. The conditions noted are these: Setaria faberi, post-emergence, 240 h, postemergence; for pest or weed control at 125 g/ha: 125 g ai/ha, visual injury vs untreated controls after approx. 10 d, 0 = no effect, 100 = complete control, read-out: Foxtail, Giant plant response rating (0 to 100 scale); for pest or weed control at 500 g/ha: 500 g ai/ha, 0 to 100 scale, 0 is no effect, 100 is complete control, read-out: Foxtail, Giant plant response rating. The essentials: as §1

In experiment [5] the test system is pigweed (Amaranthus retroflexus). As to the kind of experiment: Test A postemergence. As to conditions: Amaranthus retroflexus, post-emergence, 240 h, postemergence; for pest or weed control at 125 g/ha: 125 g ai/ha, visual injury vs untreated controls after approx. 10 d, 0 = no effect, 100 = complete control, read-out: Pigweed plant response rating (0 to 100 scale); for pest or weed control at 500 g/ha: 500 g ai/ha, 0 to 100 scale, 0 is no effect, 100 is complete control, read-out: Pigweed plant response rating. In short, it runs like this: as §1

The test system of experiment [6] is ragweed (common ragweed, Ambrosia elatior). The experiment can be described thus: Test A postemergence. The conditions noted are these: Ambrosia artemisiifolia, post-emergence, 240 h, postemergence; for pest or weed control at 125 g/ha: 125 g ai/ha, visual injury vs untreated controls after approx. 10 d, 0 = no effect, 100 = complete control, read-out: Ragweed plant response rating (0 to 100 scale); for pest or weed control at 500 g/ha: 500 g ai/ha, 0 to 100 scale, 0 is no effect, 100 is complete control, read-out: Ragweed plant response rating. In short, it runs like this: as §1

For experiment [7], the system named is ryegrass, Italian (Italian ryegrass, Lolium multiflorum). As to the kind of experiment: Test A postemergence. The conditions noted are these: Lolium multiflorum, post-emergence, 240 h, postemergence; for pest or weed control at 125 g/ha: 125 g ai/ha, visual injury vs untreated controls after approx. 10 d, 0 = no effect, 100 = complete control, read-out: Ryegrass, Italian plant response rating (0 to 100 scale); for pest or weed control at 500 g/ha: 500 g ai/ha, 0 to 100 scale, 0 is no effect, 100 is complete control, read-out: Ryegrass, Italian plant response rating. In short, it runs like this: as §1

Experiment [8] concerns wheat (Triticum aestivum). The experiment can be described thus: Test A postemergence. The conditions noted are these: Triticum aestivum, post-emergence, 240 h, postemergence; for plant injury at 125 g/ha: 125 g ai/ha, visual injury vs untreated controls after approx. 10 d, 0 = no effect, 100 = complete control, read-out: Wheat plant response rating (0 to 100 scale); for plant injury at 500 g/ha: 500 g ai/ha, 0 to 100 scale, 0 is no effect, 100 is complete control, read-out: Wheat plant response rating. The essentials:
as §1

Experiment [9] has as its system barnyardgrass (Echinochloa crus-galli). The experiment can be described thus: Test B flooded paddy test. As to conditions: Echinochloa crus-galli, 250 g ai/ha, Flood; 0 to 100 scale where 0 is no effect and 100 is complete control; read-out: Barnyardgrass plant response rating. The essentials: (§2)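 2-leaf plants; pots flooded 3 cm over soil; cpd added to paddy water; depth held; greenhouse 13–15 d; visual rating vs controls, 0 = no effect, 100 = complete control.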

Experiment [10] relates to ducksalad (Heteranthera limosa). As to the kind of experiment: Test B flooded paddy test. The conditions noted are these: Heteranthera limosa, 250 g ai/ha, Flood; 0 to 100 scale where 0 is no effect and 100 is complete control; read-out: Ducksalad plant response rating. The essentials: as §2
Another experiment concerns rice (Oryra sativa). As to the kind of experiment: Test B flooded paddy test. As to conditions: Oryza sativa, 250 g ai/ha, Flood; 0 to 100 scale where 0 is no effect and 100 is complete control; read-out: Rice plant response rating. The essentials:
as §2

Experiment [11] deals with sedge, umbrella (small-flower umbrella sedge, Cyperus difformis). The experiment can be described thus: Test B flooded paddy test. The conditions noted are these: Cyperus difformis, 250 g ai/ha, Flood; 0 to 100 scale where 0 is no effect and 100 is complete control; read-out: Sedge, Umbrella plant response rating. In short, it runs like this:
as §2

Take `Cc1c(F)cccc1NC(=O)[C@H]1C(=O)N(C)C[C@@H]1c1ccc(C(F)(F)F)nc1` [Compound 1197]: the pest or weed control at 125 g/ha in experiment [1] worked out at 100%; in experiment [2] it was 60%; with Kochia (Kochia scoparia), 70%; in [3] it was 50%; in experiment [4], 90%; in experiment [5] it was 50%. Moreover, the pest or weed control at 125 g/ha was found to be 50% in [6] and 30% in experiment [7]. Further, the pest or weed control at 500 g/ha was found to be 100% in experiment [1]; 60% in experiment [2]; 80% in the experiment with Kochia (Kochia scoparia); 50% in experiment [3]; 90% in experiment [4]; 70% in experiment [5]. Also, the pest or weed control at 500 g/ha in experiment [6] and in experiment [7] was 60% throughout. For the same compound, the plant injury at 125 g/ha with corn (Zea mays) came to 80%; in experiment [8] it was 50%. For the same compound, the figures for the plant injury at 500 g/ha (in the experiment on corn (Zea mays); in [8]) were 90% and 60%, respectively. Further, the pest or weed control at 250 g/ha in experiment [9] is 70%; in experiment [10], 100%; with rice (Oryra sativa), 0%; in [11], 0%.

`COc1cc(C(F)(F)F)ccc1[C@H]1CNC(=O)[C@@H]1C(=O)Nc1ccccc1F` [Compound 1202]: the pest or weed control at 125 g/ha in [1] is 50%; in experiment [2] it was 0%; with Kochia (Kochia scoparia), 30%; in [3], 0%; in [4] it was 70%; in experiment [5], 0%. Moreover, the pest or weed control at 125 g/ha in experiment [6] and in experiment [7] was 0% throughout. Also, the pest or weed control at 500 g/ha came out at 90% in experiment [1]; 40% in [2]; 40% with Kochia (Kochia scoparia); 40% in [3]; 90% in [4]; 20% in experiment [5]. Moreover, the pest or weed control at 500 g/ha in experiment [6] was 20%; in experiment [7], 0%. For the same compound, the results for the plant injury at 125 g/ha (with corn (Zea mays); in [8]) were 20% and 0%, respectively. For the same compound, the plant injury at 500 g/ha stood at 30% in the experiment with corn (Zea mays) and 50% in experiment [8]. Further, the pest or weed control at 250 g/ha in [9] is 0%; in [10], 100%; with rice (Oryra sativa) it was 0%; in [11] it was 0%.

Turning to `COc1ccc([C@H]2CN(C)C(=O)[C@@H]2C(=O)Nc2cccc(F)c2F)c(OC)c1` [Compound 1209], the pest or weed control at 125 g/ha in experiment [1] came to 90%; in experiment [2], 0%; with Kochia (Kochia scoparia), 0%; in experiment [3] it was 0%; in experiment [4], 80%; in experiment [5], 0%. For the same compound, the pest or weed control at 125 g/ha in [6] and in experiment [7] was 0% throughout. The pest or weed control at 500 g/ha turned out to be 100% in [1]; 30% in experiment [2]; 50% with Kochia (Kochia scoparia); 30% in experiment [3]; 90% in experiment [4]; 0% in [5]. For the same compound, the pest or weed control at 500 g/ha in experiment [6] is 0%; in experiment [7] it was 20%. Further, the plant injury at 125 g/ha (in the experiment with corn (Zea mays); in experiment [8]) was 0% in each case. The plant injury at 500 g/ha in the experiment on corn (Zea mays) was determined as 0%; in experiment [8], 20%. Also, the pest or weed control at 250 g/ha in experiment [9] was 0%; in experiment [10] it was 50%; with rice (Oryra sativa), 0%; in experiment [11] it was 0%.

In the case of `COc1cc([C@H]2CN(C)C(=O)[C@@H]2C(=O)Nc2cccc(F)c2F)cc(OC)c1OC` [Compound 1210], the pest or weed control at 125 g/ha in experiment [1] was determined as 100%; in [2], 0%; in the experiment with Kochia (Kochia scoparia) it was 0%; in experiment [3], 0%; in experiment [4] it was 90%; in experiment [5], 0%. In addition, the pest or weed control at 125 g/ha was found to be 0% in experiment [6] and 30% in [7]. Besides, the pest or weed control at 500 g/ha in experiment [1] came out at 100%; in experiment [2], 0%; in the experiment with Kochia (Kochia scoparia), 0%; in [3] it was 50%; in experiment [4], 90%; in experiment [5], 0%. The figures for the pest or weed control at 500 g/ha in experiment [6] and in experiment [7] were 0% and 60%, respectively. Further, the plant injury at 125 g/ha (with corn (Zea mays); in experiment [8]) was 0% throughout. The plant injury at 500 g/ha in the experiment with corn (Zea mays) was 50%; in experiment [8], 60%. In addition, the pest or weed control at 250 g/ha in experiment [9] stood at 50%; in [10] it was 30%; in the experiment on rice (Oryra sativa) it was 20%; in experiment [11], 0%.
